“Also recorded” adds a separate entry of the source.
Legend:
[1] = test system: human melanoma cell line A375; set-up: method as in PMID 36986941; conditions: cited from earlier work; for wound healing rate: 50 µM
[2] = in vitro; conditions: human
Procedure: (§1) The effect of testing substances (BI and BA1-BA4) on the survival of human keratinocytes cell line HaCat was also assessed.
(§2) The MTT assay was used to determine the effect of 2,3-indolo-betulinic acid derivatives and betulinic acid on the viability of HaCaT human keratinocyte cell line and B164A5 murine melanoma cells. […] Briefly, 1 × 10^4 cells per well were seeded onto 96-well culture plates and incubated until 70–80% confluence was achieved. Subsequently, the cells were subjected to stimulation for a duration of 72 h using five distinct concentrations (1, 10, 25, 50, and 75 µM) of the test samples. Following a 72 h incubation period, a 10 μL amount of a 5 mg/mL MTT solution obtained from the MTT kit (Sigma-Aldrich, St. Louis, MO, USA) was introduced into each well and subjected to an additional 3 h incubation. The formazan crystals that had been yielded were dissolved by the addition of 100 μL per well of the lysis solution that was included in the MTT kit. B164A5 cells and HaCaT cells were used as a control, and they were only treated with culture medium for 72 h. The spectrophotometric analysis of absorbance was performed at a wavelength of 570 nm using a microplate reader (BioRad, Hercules, CA, USA, xMark Microplate Spectrophotometer).

[3] = test system: murine melanoma B164A5 cells; experiment: Hoechst 33342 nuclear staining; type: cell-based; conditions: 25, 50, 75 μM tested; exposure per Figure 7 legend
Procedure: The procedure was implemented in accordance with the manufacturer’s recommendations. […] A positive control was used to induce apoptosis, using a concentration of 5 µM staurosporine for a duration of 3 h at a temperature of 37 °C. Similarly, for necrosis induction, a concentration of 0.5% Triton X-100 was utilized, with an incubation period of 30 min at 37 °C.

[4] = test system: B164A5 murine melanoma cells; experiment: MTT cell viability assay on B164A5; conditions: for reduction of cellular viability: 1 µM, 72 h, MTT; for viability at 75 µM: read-out: cell viability (growth percentage), 75 µM, 72 h, MTT; for viability at 1 µM: read-out: cell viability, 1 µM, 72 h, MTT
Procedure: as §2

[5] = test system: A375 human melanoma cells; set-up: method as in PMID 27553358; conditions: 72 h incubation; cited from earlier work
[6] = test system: B164A5 cells; experiment: Scratch (wound healing) anti-migratory assay; type: cell-based, murine; conditions: 50 µM, 24 h
Procedure: To evaluate the invasion capability of B164A5 cells after stimulation with the tested compounds (1, 10, 25, and 50 µM), a scratch-based experiment was conducted. In summary, a quantity of 2 × 10^5 cells/well were evenly distributed onto 12-well culture plates until a complete and cohesive layer of cells was achieved. Subsequently, a sterile pipette tip was used to create a void in the center of each well. The cells and cellular debris that were detached subsequent to the process were carefully rinsed using phosphate buffer saline (PBS). Additionally, the cells were subjected to stimulation with the tested compounds. Photographs of the scratched region were captured at two time points: 0 h and 24 h. The images were obtained using an inverted microscope (Olympus IX73, Olympus, Tokyo, Japan) with a DP74 camera (Olympus, Tokyo, Japan) at a magnification of 10×. The cellSense Dimension program was used for the purpose of analyzing cell growth.
The scratch closure rate was calculated using the formula [78]:Scratch closure rate = [(At0 − At)/[…]] × 100, where At0 represents the initial scratch area at time 0 h, and At represents the scratch area after 24 h.

[7] = test system: Lox IMVI melanoma cells; set-up: method as in doi:10.1134/S1068162018030081; conditions: 100 µM, 48 h; cited from earlier work
[8] = MTT cell viability assay on HaCaT; conditions: human, HaCaT keratinocyte cells
Procedure: as §1, §2

[9] = test system: HaCaT human keratinocyte cell line; experiment: MTT cell viability assay on HaCaT; conditions: for reduction in cell viability: increasing dosages (25, 50, and 75 μM), 72 h
Procedure: as §1, §2

[10] = test system: human melanoma A375 cells; conditions: cited from earlier work; for cytotoxic effect (LDH): 25 µM
[11] = test system: SK-MEL-2 cells; set-up: method as in doi:10.1134/S1068162018030081; conditions: 100 µM, 48 h; cited from earlier work
[12] = test system: HaCaT cells; conditions: concentrations over 10 μM; cited from earlier work
[13] = test system: murine melanoma cells B164A5; set-up: cell viability: dose or concentration left out as unconfirmed; conditions: cited from earlier work
[14] = test system: murine melanoma cells (B164A5); experiment: Neutral Red (NR) cytotoxicity assay; conditions: 75 µM, 72 h
Text: In addition to undertaking the MTT proliferation assessment, the NR technique was used to measure the cytotoxicity rate of the substances being studied. The underlying premise of this methodology depends upon the measurement of live cells using the NR chromophore, which effectively stains the lysosome of living cells. […] Consequently, live cells have the capability to secrete the NR dye when subjected to acidic conditions. Moreover, the intensity of the dye may be directly associated with the quantity of living cells, thereby enabling the assessment of drug-induced cytotoxicity.
In summary, the experimental procedure included subjecting the cells to five different doses (1, 10, 25, 50, and 75 µM) of test samples for a duration of 72 h. Subsequently, a volume of 10 μL of a 0.33% NR solution was introduced into each well, followed by an incubation period of at least 3 h. Following the completion of the incubation time, the medium was extracted, and the cells were promptly rinsed with a 50 μL solution of NR assay fixative. Subsequently, a solubilization step was carried out using a 100 μL solution of NR assay solubilization solution per well.

[15] = test system: B164A5 murine melanoma cells; experiment: Lactate dehydrogenase (LDH) release assay; conditions: 75 µM, 72 h
Procedure: The LDH technique is used to evaluate the extracellular release of internal lactate dehydrogenase subsequent to the disruption of the cellular membrane.
The present investigation used the LDH test to assess the cytotoxicity and necrosis-related events that transpired after the exposure of B164A5 murine melanoma cells to the test samples for a duration of 72 h.
The experimental procedure was conducted in accordance with the instructions outlined in the pierce LDH cytotoxicity assay kit, which was supplied by the manufacturer (Thermo Fisher Scientific, Boston, MA, USA).

Row | Compound | wound healing rate [1] [%] | viability at 72 h, 75 µM [2] [%] | nuclear changes (apoptosis / necrosis) [3] | reduction of cellular viability [4] [%] | IC50 ([4]; Mus musculus, B16-4A5, 72 h) [µM] | viability at 75 µM ([4]; Mus musculus, B16-4A5, 72 h) [%] | viability at 1 µM ([4]; Mus musculus, B16-4A5, 72 h) [%] | inhibitory activity relative to BA4 ([4]; ratio of IC50 values) | wound healing rate (scratch closure rate) [6] [%] | reduction in cell viability [9] | cytotoxic effect (LDH) [10] [%] | other results
1 | C=C(C)[C@@H]1CC[C@]2(C(=O)NCC(=O)NCC(=O)NCC(=O)O)CC[C@]3(C)[C@H](CC[C@@H]4[C@@]5(C)Cc6c([nH]c7ccccc67)C(C)(C)[C@@H]5CC[C@]43C)[C@@H]12 [BA1, N-(2,3-indolo-betulinoyl)diglycylglycine] | 35 | ~70 | apoptosis features only at a concentration of 75 μM; also recorded: apoptotic characteristics only at a concentration of 75 μM | 27 | 10.34 ± 0.06 | 5.7 |  |  |  |  |  | IC50 [5]: 5.7 µM
2 | C=C(C)[C@@H]1CC[C@]2(C(=O)NCC(=O)NCC(=O)O)CC[C@]3(C)[C@H](CC[C@@H]4[C@@]5(C)Cc6c([nH]c7ccccc67)C(C)(C)[C@@H]5CC[C@]43C)[C@@H]12 [BA2, N-(2,3-indolo-betulinoyl)glycylglycine] | 30 | ~70 | specific signs of apoptosis (chromatin condensation) at both concentrations of 50 and 75 μM; also recorded: distinct signs of apoptosis, such as chromatin condensation, at both concentrations of 50 and 75 μM | 15 | 9.15 ± 0.05 |  | 15.9 | approximately 2.20 fold | 10.0 |  |  | viability at 50 µM ([4]; Mus musculus, B16-4A5, 72 h, read-out: cell viability, 50 µM, 72 h, MTT): 0.41%
3 | C=C(C)[C@@H]1CC[C@]2(C(=O)NCC(=O)O)CC[C@]3(C)[C@H](CC[C@@H]4[C@@]5(C)Cc6c([nH]c7ccccc67)C(C)(C)[C@@H]5CC[C@]43C)[C@@H]12 [BA3, N-(2,3-indolo-betulinoyl)glycine] |  | ~70 | necrosis process being observed from concentration of 25 μM; also recorded: necrotic process being apparent at a dosage of 25 μM |  | 8.11 ± 0.13 | -1.5 | 8.1 | approximately 2.20 fold | 21.3 |  |  | 
4 | C=C(C)C1CCC2(C(=O)O)CCC3(C)C(CCC4C5(C)Cc6c([nH]c7ccccc67)C(C)(C)C5CCC43C)C12 (stereo not shown) [BA4, 2,3-indolo-betulinic acid] |  |  | necrosis only from a concentration of 50 μM; also recorded: necrosis was evident in cells exposed to BA4 and BI only at a concentration of 50 μM |  | 17.62 ± 0.11 | 15 |  |  |  | around 21% | 43.36 | viability percentage [7]: 44%; activity relative to parent triterpenoid BI ([4]; ratio of IC50 values): 1.2 times; viability at 72 h, 75 µM [8]: 80.3%; cytotoxic rate (LDH) ([10]; 75 µM): 32.8%; viability rate [11]: 57%
5 | C=C(C)[C@@H]1CC[C@]2(C(=O)O)CC[C@]3(C)[C@H](CC[C@@H]4[C@@]5(C)CC[C@H](O)C(C)(C)[C@@H]5CC[C@]43C)[C@@H]12 [BI, Betulinic acid] |  |  | necrosis only from a concentration of 50 μM; also recorded: necrosis was evident in cells exposed to BA4 and BI only at a concentration of 50 μM | 32 | 21.14 ± 0.08 | 9.6 | 31.3 |  | 34.9 | around 21% | 21.2 | scratch closure rate ([1]; 25 µM): 17.5%; decrease in cell viability [12]: 20%; reduction in cell viability ([4]; 25 µM, 72 h exposure): 71%; cell viability diminished by ([9]; concentrations exceeding 10 µM): approximately 20%; reduction in cell viability ([13]; 25 µM, 48 h of exposure): 40%; cell viability ([13]; 72 h of exposure): 50%; cytotoxicity rate (NR assay) [14]: 63.0%; LDH release (cytotoxic rate) [15]: 52.7%
